Laboratory results as given in the NIST ThermoML archive (doi:10.1021/je034087q).

Assay: xn = mol fraction of the nth substance listed

CC(C)=O [acetone] + O=C=O
Details	mass density [kg/m3]
318.15 K, 8180 kPa, Fluid (supercritical or subcritical phases), x2 = 0.902	715
318.15 K, 8410 kPa, Fluid (supercritical or subcritical phases), x2 = 0.902	722
318.15 K, 8570 kPa, Fluid (supercritical or subcritical phases), x2 = 0.902	726
318.15 K, 8810 kPa, Fluid (supercritical or subcritical phases), x2 = 0.902	732
318.15 K, 8960 kPa, Fluid (supercritical or subcritical phases), x2 = 0.902	735
318.15 K, 9180 kPa, Fluid (supercritical or subcritical phases), x2 = 0.902	738
318.15 K, 9410 kPa, Fluid (supercritical or subcritical phases), x2 = 0.902	744
318.15 K, 9570 kPa, Fluid (supercritical or subcritical phases), x2 = 0.902	746
318.15 K, 9780 kPa, Fluid (supercritical or subcritical phases), x2 = 0.902	751
318.15 K, 9900 kPa, Fluid (supercritical or subcritical phases), x2 = 0.902	754
318.15 K, 10070 kPa, Fluid (supercritical or subcritical phases), x2 = 0.902	756
318.15 K, 10330 kPa, Fluid (supercritical or subcritical phases), x2 = 0.902	757
318.15 K, 10540 kPa, Fluid (supercritical or subcritical phases), x2 = 0.902	763
318.15 K, 10770 kPa, Fluid (supercritical or subcritical phases), x2 = 0.902	766
318.15 K, 10970 kPa, Fluid (supercritical or subcritical phases), x2 = 0.902	770
318.15 K, 11190 kPa, Fluid (supercritical or subcritical phases), x2 = 0.902	774
318.15 K, 11500 kPa, Fluid (supercritical or subcritical phases), x2 = 0.902	776
318.15 K, 11830 kPa, Fluid (supercritical or subcritical phases), x2 = 0.902	781
318.15 K, 12140 kPa, Fluid (supercritical or subcritical phases), x2 = 0.902	785
318.15 K, 12450 kPa, Fluid (supercritical or subcritical phases), x2 = 0.902	789
318.15 K, 12710 kPa, Fluid (supercritical or subcritical phases), x2 = 0.902	793
318.15 K, 13050 kPa, Fluid (supercritical or subcritical phases), x2 = 0.902	795
318.15 K, 13370 kPa, Fluid (supercritical or subcritical phases), x2 = 0.902	798
318.15 K, 13700 kPa, Fluid (supercritical or subcritical phases), x2 = 0.902	803
318.15 K, 14060 kPa, Fluid (supercritical or subcritical phases), x2 = 0.902	807
318.15 K, 14370 kPa, Fluid (supercritical or subcritical phases), x2 = 0.902	809
318.15 K, 14610 kPa, Fluid (supercritical or subcritical phases), x2 = 0.902	812
318.15 K, 14870 kPa, Fluid (supercritical or subcritical phases), x2 = 0.902	815
318.15 K, Liquid, Other PVT measurement, x2 = 0.902	709
323.15 K, 1690 kPa, Fluid (supercritical or subcritical phases), x2 = 0.186	764
323.15 K, 2050 kPa, Fluid (supercritical or subcritical phases), x2 = 0.186	767
323.15 K, 2920 kPa, Fluid (supercritical or subcritical phases), x2 = 0.186	770
323.15 K, 4190 kPa, Fluid (supercritical or subcritical phases), x2 = 0.383	789
323.15 K, 4500 kPa, Fluid (supercritical or subcritical phases), x2 = 0.186	772
323.15 K, 5090 kPa, Fluid (supercritical or subcritical phases), x2 = 0.576	798
323.15 K, 5870 kPa, Fluid (supercritical or subcritical phases), x2 = 0.383	795
323.15 K, 6050 kPa, Fluid (supercritical or subcritical phases), x2 = 0.186	775
323.15 K, 6120 kPa, Fluid (supercritical or subcritical phases), x2 = 0.576	802
323.15 K, 7330 kPa, Fluid (supercritical or subcritical phases), x2 = 0.186	777
323.15 K, 7430 kPa, Fluid (supercritical or subcritical phases), x2 = 0.576	810
323.15 K, 7470 kPa, Fluid (supercritical or subcritical phases), x2 = 0.772	783
323.15 K, 7570 kPa, Fluid (supercritical or subcritical phases), x2 = 0.811	760
323.15 K, 7780 kPa, Fluid (supercritical or subcritical phases), x2 = 0.811	764
323.15 K, 7880 kPa, Fluid (supercritical or subcritical phases), x2 = 0.383	800
323.15 K, 7930 kPa, Fluid (supercritical or subcritical phases), x2 = 0.772	787
323.15 K, 7930 kPa, Fluid (supercritical or subcritical phases), x2 = 0.811	769
323.15 K, 8250 kPa, Fluid (supercritical or subcritical phases), x2 = 0.882	703
323.15 K, 8280 kPa, Fluid (supercritical or subcritical phases), x2 = 0.811	774
323.15 K, 8420 kPa, Fluid (supercritical or subcritical phases), x2 = 0.772	792
323.15 K, 8500 kPa, Fluid (supercritical or subcritical phases), x2 = 0.882	712
323.15 K, 8620 kPa, Fluid (supercritical or subcritical phases), x2 = 0.811	778
323.15 K, 8630 kPa, Fluid (supercritical or subcritical phases), x2 = 0.882	716
323.15 K, 8710 kPa, Fluid (supercritical or subcritical phases), x2 = 0.186	781
323.15 K, 8750 kPa, Fluid (supercritical or subcritical phases), x2 = 0.902	678
323.15 K, 8790 kPa, Fluid (supercritical or subcritical phases), x2 = 0.882	719
323.15 K, 8860 kPa, Fluid (supercritical or subcritical phases), x2 = 0.933	586
323.15 K, 8880 kPa, Fluid (supercritical or subcritical phases), x2 = 0.933	590
323.15 K, 8920 kPa, Fluid (supercritical or subcritical phases), x2 = 0.902	683
323.15 K, 8930 kPa, Fluid (supercritical or subcritical phases), x2 = 0.882	721
323.15 K, 8930 kPa, Fluid (supercritical or subcritical phases), x2 = 0.933	594
323.15 K, 8960 kPa, Fluid (supercritical or subcritical phases), x2 = 0.576	813
323.15 K, 8970 kPa, Fluid (supercritical or subcritical phases), x2 = 0.772	796
323.15 K, 8980 kPa, Fluid (supercritical or subcritical phases), x2 = 0.952	495
323.15 K, 8990 kPa, Fluid (supercritical or subcritical phases), x2 = 0.933	601
323.15 K, 9000 kPa, Fluid (supercritical or subcritical phases), x2 = 0.948	540
323.15 K, 9000 kPa, Fluid (supercritical or subcritical phases), x2 = 0.952	497
323.15 K, 9020 kPa, Fluid (supercritical or subcritical phases), x2 = 0.902	687
323.15 K, 9030 kPa, Fluid (supercritical or subcritical phases), x2 = 0.952	502
323.15 K, 9040 kPa, Fluid (supercritical or subcritical phases), x2 = 0.933	606
323.15 K, 9060 kPa, Fluid (supercritical or subcritical phases), x2 = 0.948	549
323.15 K, 9060 kPa, Fluid (supercritical or subcritical phases), x2 = 0.952	505
323.15 K, 9090 kPa, Fluid (supercritical or subcritical phases), x2 = 0.952	510
323.15 K, 9100 kPa, Fluid (supercritical or subcritical phases), x2 = 0.933	613
323.15 K, 9110 kPa, Fluid (supercritical or subcritical phases), x2 = 0.882	728
323.15 K, 9120 kPa, Fluid (supercritical or subcritical phases), x2 = 0.948	559
323.15 K, 9120 kPa, Fluid (supercritical or subcritical phases), x2 = 0.952	514
323.15 K, 9140 kPa, Fluid (supercritical or subcritical phases), x2 = 0.952	519
323.15 K, 9160 kPa, Fluid (supercritical or subcritical phases), x2 = 0.902	690
323.15 K, 9170 kPa, Fluid (supercritical or subcritical phases), x2 = 0.952	523
323.15 K, 9180 kPa, Fluid (supercritical or subcritical phases), x2 = 0.933	618
323.15 K, 9190 kPa, Fluid (supercritical or subcritical phases), x2 = 0.952	527
323.15 K, 9200 kPa, Fluid (supercritical or subcritical phases), x2 = 0.948	568
323.15 K, 9220 kPa, Fluid (supercritical or subcritical phases), x2 = 0.952	531
323.15 K, 9240 kPa, Fluid (supercritical or subcritical phases), x2 = 0.933	624
323.15 K, 9250 kPa, Fluid (supercritical or subcritical phases), x2 = 0.952	537
323.15 K, 9270 kPa, Fluid (supercritical or subcritical phases), x2 = 0.902	694
323.15 K, 9290 kPa, Fluid (supercritical or subcritical phases), x2 = 0.952	541
323.15 K, 9300 kPa, Fluid (supercritical or subcritical phases), x2 = 0.948	579
323.15 K, 9320 kPa, Fluid (supercritical or subcritical phases), x2 = 0.952	546
323.15 K, 9330 kPa, Fluid (supercritical or subcritical phases), x2 = 0.933	630
323.15 K, 9350 kPa, Fluid (supercritical or subcritical phases), x2 = 0.811	787
323.15 K, 9350 kPa, Fluid (supercritical or subcritical phases), x2 = 0.952	550
323.15 K, 9380 kPa, Fluid (supercritical or subcritical phases), x2 = 0.882	732
323.15 K, 9380 kPa, Fluid (supercritical or subcritical phases), x2 = 0.952	556
323.15 K, 9400 kPa, Fluid (supercritical or subcritical phases), x2 = 0.902	699
323.15 K, 9410 kPa, Fluid (supercritical or subcritical phases), x2 = 0.933	637
323.15 K, 9410 kPa, Fluid (supercritical or subcritical phases), x2 = 0.948	590
323.15 K, 9430 kPa, Fluid (supercritical or subcritical phases), x2 = 0.952	561
323.15 K, 9450 kPa, Fluid (supercritical or subcritical phases), x2 = 0.772	798
323.15 K, 9480 kPa, Fluid (supercritical or subcritical phases), x2 = 0.952	567
323.15 K, 9520 kPa, Fluid (supercritical or subcritical phases), x2 = 0.902	702
323.15 K, 9520 kPa, Fluid (supercritical or subcritical phases), x2 = 0.933	642
323.15 K, 9520 kPa, Fluid (supercritical or subcritical phases), x2 = 0.952	571
323.15 K, 9540 kPa, Fluid (supercritical or subcritical phases), x2 = 0.948	602
323.15 K, 9560 kPa, Fluid (supercritical or subcritical phases), x2 = 0.383	803
323.15 K, 9560 kPa, Fluid (supercritical or subcritical phases), x2 = 0.952	578
323.15 K, 9620 kPa, Fluid (supercritical or subcritical phases), x2 = 0.952	582
323.15 K, 9630 kPa, Fluid (supercritical or subcritical phases), x2 = 0.933	649
323.15 K, 9650 kPa, Fluid (supercritical or subcritical phases), x2 = 0.882	736
323.15 K, 9660 kPa, Fluid (supercritical or subcritical phases), x2 = 0.948	613
